Test results as given in ChEMBL document CHEMBL5614367, “Hydroxamic acid hybrids: Histone deacetylase inhibitors with anticancer therapeutic potency” (Eur J Med Chem, 2023).

Key:
[1] = system: LNCaP; test: Antiproliferative activity against human LNCaP cells assessed as inhibition of cell growth measured after 72 hrs by SRB assay; assay type: functional, cell-based
[2] = system: LNCaP C4-2; test: Antiproliferative activity against human C4-2 cells assessed as inhibition of cell growth measured after 72 hrs by SRB assay; assay type: functional, cell-based; conditions: LNCaP C4-2, 72 h
[3] = system: LNCaP C4-2B; test: Antiproliferative activity against human LNCaP C4-2B cells assessed as inhibition of cell growth measured after 72 hrs by SRB assay; assay type: functional, cell-based
[4] = system: LAPC4; test: Antiproliferative activity against human LAPC4 cells assessed as inhibition of cell growth measured after 72 hrs by SRB assay; assay type: functional, cell-based; conditions: LAPC4, 72 h
[5] = system: PC-3; test: Antiproliferative activity against human PC-3 cells assessed as inhibition of cell growth measured after 72 hrs by SRB assay; assay type: functional, cell-based; conditions: PC-3, 72 h
[6] = system: DU-145; test: Antiproliferative activity against human DU-145 cells assessed as inhibition of cell growth measured after 72 hrs by SRB assay; assay type: functional, cell-based; conditions: DU-145, 72 h
[7] = system: CWR22R; test: Antiproliferative activity against human 22Rv1 cells assessed as inhibition of cell growth measured after 72 hrs by SRB assay; assay type: functional, cell-based; conditions: 22Rv1, 72 h
[8] = system: KYSE-150 cell line; test: Antiproliferative activity against human KYSE-150 cells assessed as inhibition of cell growth measured after 72 hrs by CCK-8 assay; assay type: functional, cell-based; conditions: KYSE-150, 72 h
[9] = system: KYSE-450; test: Antiproliferative activity against human KYSE-450 cells assessed as inhibition of cell growth measured after 72 hrs by CCK-8 assay; assay type: functional, cell-based; conditions: KYSE-450, 72 h
[10] = system: KYSE-510; test: Antiproliferative activity against human KYSE-510 cells assessed as inhibition of cell growth measured after 72 hrs by CCK-8 assay; assay type: functional, cell-based; conditions: KYSE-510, 72 h
[11] = system: KYSE-30; test: Antiproliferative activity against human KYSE-30 cells assessed as inhibition of cell growth measured after 72 hrs by CCK-8 assay; assay type: functional, cell-based; conditions: KYSE-30, 72 h
[12] = system: ASPC1; test: Antiproliferative activity against human ASPC1 cells assessed as inhibition of cell growth measured after 72 hrs by MTT assay; assay type: functional, cell-based; conditions: ASPC1, 72 h
[13] = system: BXPC-3; test: Antiproliferative activity against human BXPC-3 cells assessed as inhibition of cell growth measured after 72 hrs by MTT assay; assay type: functional, cell-based; conditions: BXPC-3, 72 h
[14] = system: CFPAC-1; test: Antiproliferative activity against human CFPAC-1 cells assessed as inhibition of cell growth measured after 72 hrs by MTT assay; assay type: functional, cell-based; conditions: CFPAC-1, 72 h
[15] = system: HPAC; test: Antiproliferative activity against human HPAC cells assessed as inhibition of cell growth measured after 72 hrs by MTT assay; assay type: functional, cell-based
[16] = system: MIA PaCa-2; test: Antiproliferative activity against human MIA PaCa-2 cells assessed as inhibition of cell growth measured after 72 hrs by MTT assay; assay type: functional, cell-based; conditions: MIA PaCa-2, 72 h
[17] = system: PANC-1; test: Antiproliferative activity against human PANC-1 cells assessed as inhibition of cell growth measured after 72 hrs by MTT assay; assay type: functional, cell-based; conditions: PANC-1, 72 h
[18] = system: KYSE-450; test: Antitumor activity against human KYSE-450 cells xenografted in male C57BL/6 nude mouse assessed as reduction in tumor growth at 200 mg/kg, po administered for 5 days followed by 2 off schedule and measured every third day for 31 days relative to control; assay type: functional; set-up: scale not given: the % may be the effect or the level left; conditions: time 31 day
[19] = system: BXPC-3; test: Antitumor activity against human BXPC-3 cells xenografted in female BALB/c nude mouse assessed as tumor inhibition rate by measuring T/C ratio at 10 mg/kg, ip administered for 20 days and measured every 1 to 3 days relative to control; assay type: functional; conditions: time 20 day
[20] = system: A549; test: Antitumor activity against human A549 cells xenografted in assessed as reduction in tumor growth at 50 mg/kg, po administered via oral gavage 5 days on/2 days off dosing and measured on day 10,25 and 31 relative to control; assay type: functional; set-up: scale not given: the % may be the effect or the level left; conditions: time 31 day
[21] = Antitumor activity against human Castration-resistant LuCaP 35CR cells xenografted in male CB17 SCID mouse assessed as inhibition of tumor growth at 100 mg/kg, po administered via oral gavage measured after 19 days relative to control; assay type: functional; conditions: 456 h, time 19 day
[22] = system: K562; test: Antiproliferative activity against human K562 cells measured after 72 hrs by CCK-8 assay; assay type: functional, cell-based; conditions: K562, 72 h
[23] = system: U-266; test: Antiproliferative activity against human U-266 cells measured after 72 hrs by CCK-8 assay; assay type: functional, cell-based; conditions: U-266, 72 h, pooled result: one value given for 9 cell lines, strains, targets or settings
[24] = system: DU-145; test: cells; assay type: functional, cell-based; conditions: Homo sapiens, DU-145, 48 h; pooled result: one value given for 6 cell lines, strains, targets or settings
[25] = target: Histone deacetylase; test: Inhibition of human HDAC extracted from human HeLa cell nuclear extract incubated for 30 mins by fluorometric analysis; assay type: subcellular, Nucleus
[26] = target: Epidermal growth factor receptor (Homo sapiens) (UniProt P00533); test: Inhibition of EGFR (unknown origin) at 10 uM preincubated for 0.5 hrs followed by substrate addition and measured after 1 hr by ADP-Glo assay relative to control; conditions: time 1.5 hrs
Chain of Epidermal growth factor receptor (Homo sapiens) (P00533 whole entry): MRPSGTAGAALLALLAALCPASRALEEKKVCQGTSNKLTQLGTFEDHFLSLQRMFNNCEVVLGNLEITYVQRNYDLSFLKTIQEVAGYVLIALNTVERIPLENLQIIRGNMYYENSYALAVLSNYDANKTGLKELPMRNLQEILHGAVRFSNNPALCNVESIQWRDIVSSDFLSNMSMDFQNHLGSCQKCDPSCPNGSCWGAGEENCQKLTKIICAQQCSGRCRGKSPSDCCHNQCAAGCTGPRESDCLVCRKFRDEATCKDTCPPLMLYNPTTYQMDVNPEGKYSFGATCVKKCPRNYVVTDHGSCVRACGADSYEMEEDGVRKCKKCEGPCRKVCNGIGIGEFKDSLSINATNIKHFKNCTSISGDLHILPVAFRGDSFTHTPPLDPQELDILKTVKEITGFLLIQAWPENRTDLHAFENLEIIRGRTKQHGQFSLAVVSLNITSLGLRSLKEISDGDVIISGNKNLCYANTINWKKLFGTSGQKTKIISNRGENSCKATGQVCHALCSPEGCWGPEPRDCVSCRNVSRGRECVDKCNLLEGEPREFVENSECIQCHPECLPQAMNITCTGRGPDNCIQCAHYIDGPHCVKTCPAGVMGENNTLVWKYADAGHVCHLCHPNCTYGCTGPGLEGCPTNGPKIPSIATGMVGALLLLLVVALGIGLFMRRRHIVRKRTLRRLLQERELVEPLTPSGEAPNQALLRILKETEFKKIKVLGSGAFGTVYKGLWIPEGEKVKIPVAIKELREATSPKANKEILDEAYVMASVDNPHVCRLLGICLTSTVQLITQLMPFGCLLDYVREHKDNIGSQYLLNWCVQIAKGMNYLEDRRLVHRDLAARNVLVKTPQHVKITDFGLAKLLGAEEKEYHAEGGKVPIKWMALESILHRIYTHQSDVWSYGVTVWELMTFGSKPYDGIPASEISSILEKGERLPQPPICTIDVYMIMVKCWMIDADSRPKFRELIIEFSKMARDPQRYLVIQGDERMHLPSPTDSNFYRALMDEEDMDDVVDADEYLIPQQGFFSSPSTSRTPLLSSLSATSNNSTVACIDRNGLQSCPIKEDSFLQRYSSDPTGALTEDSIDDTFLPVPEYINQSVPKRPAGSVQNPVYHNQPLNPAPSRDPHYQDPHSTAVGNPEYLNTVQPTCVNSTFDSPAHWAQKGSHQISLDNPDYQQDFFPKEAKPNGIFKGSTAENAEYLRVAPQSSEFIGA

Compound: COc1ccc(-c2nc(N3CCOCC3)c3sc(CN(C)c4ncc(C(=O)NO)cn4)cc3n2)cn1 [FIMEPINOSTAT]
- IC50 [1]: 2 nM
- IC50 [2]: 2 nM
- IC50 [3]: 2 nM
- IC50 [4]: 2 nM
- IC50 [5]: 2 nM
- IC50 [6]: 2 nM
- IC50 [7]: 2 nM
- IC50 [8]: 2 nM
- IC50 [9]: 2 nM
- IC50 [10]: 2 nM
- IC50 [11]: 2 nM
- IC50 [12]: 2 nM
- IC50 [13]: 2 nM
- IC50 [14]: 2 nM
- IC50 [15]: 2 nM
- IC50 [16]: 2 nM
- IC50 [17]: 2 nM
- Activity [18]: ~65%
- T/C [19]: 52%
- Activity [20]: ~80%
- inhibition in vivo at 100 mg/kg [21]: ~60%

Compound: O=C(NO)c1ccc(N2CCN(C(=O)c3cc(-c4ccc(-c5ccccc5)cc4)nc4ccccc34)CC2)cc1
- IC50 [22]: 1080 nM
- IC50 [23]: 1080 nM

Compound: O=C(CCCCCCC(=O)Nc1ccc2ncnc(Nc3cccc(Cl)c3)c2c1)NO
- IC50 [24]: 1180 nM
- IC50 [25]: 474 nM
- inhibition [26]: 75%
